Experimental data reported in patent US11725011B2, “Bicyclic urea kinase inhibitors and uses thereof” (The Broad Institute, Inc., priority 2016, dated 2023).

Tests used:
CAMK2D = CAMK2D (Homo sapiens (Human), UniProt Q13557); experiment: KINOMEscan; type: binding; details: 1 uM
CLK1 = CLK1 (Homo sapiens (Human), UniProt P49759); experiment: KINOMEscan; type: binding; details: 1 uM
EPHB3 = EPHB3 (Homo sapiens (Human), UniProt P54753); experiment: KINOMEscan; type: binding; details: 1 uM
PIK3CA (E542K) = PIK3CA (E542K) (Homo sapiens (Human), UniProt P42336, E542K); experiment: KINOMEscan; type: binding; details: 1 uM
PRKR = PRKR (Homo sapiens (Human), UniProt P19525); experiment: KINOMEscan; type: binding; details: 1 uM
ACVR1B = ACVR1B (Homo sapiens (Human), UniProt P36896); experiment: KINOMEscan; type: binding; details: 1 uM
ZAK = ZAK (Homo sapiens (Human), UniProt Q9NYL2); experiment: KINOMEscan; type: binding; details: 1 uM
IKK-alpha = IKK-alpha (Homo sapiens (Human), UniProt O15111); experiment: KINOMEscan; type: binding; details: 1 uM
PIK3CA (C420R) = PIK3CA (C420R) (Homo sapiens (Human), UniProt P42336, C420R); experiment: KINOMEscan; type: binding; details: 1 uM
TYRO3 = TYRO3 (Homo sapiens (Human), UniProt Q06418); experiment: KINOMEscan; type: binding; details: 1 uM
MELK = MELK (Homo sapiens (Human), UniProt Q14680); experiment: KINOMEscan; type: binding; details: 1 uM
MKNK1 = MKNK1 (Homo sapiens (Human), UniProt Q9BUB5); experiment: KINOMEscan; type: binding; details: 1 uM
MEK5 = MEK5 (Homo sapiens (Human), UniProt Q13163); experiment: KINOMEscan; type: binding; details: 1 uM
MTOR = MTOR (Homo sapiens (Human), UniProt P42345); experiment: KINOMEscan; type: binding; details: 1 uM
TXK = TXK (Homo sapiens (Human), UniProt P42681); experiment: KINOMEscan; type: binding; details: 1 uM
LOK = LOK (Homo sapiens (Human), UniProt O94804); experiment: KINOMEscan; type: binding; details: 1 uM
TRKC = TRKC (Homo sapiens (Human), UniProt Q16288); experiment: KINOMEscan; type: binding; details: 1 uM
PKAC-beta = PKAC-beta (Homo sapiens (Human), UniProt P22694); experiment: KINOMEscan; type: binding; details: 1 uM
EPHA1 = EPHA1 (Homo sapiens (Human), UniProt P21709); experiment: KINOMEscan; type: binding; details: 1 uM
Sequence of EPHA1 (P21709 26-976): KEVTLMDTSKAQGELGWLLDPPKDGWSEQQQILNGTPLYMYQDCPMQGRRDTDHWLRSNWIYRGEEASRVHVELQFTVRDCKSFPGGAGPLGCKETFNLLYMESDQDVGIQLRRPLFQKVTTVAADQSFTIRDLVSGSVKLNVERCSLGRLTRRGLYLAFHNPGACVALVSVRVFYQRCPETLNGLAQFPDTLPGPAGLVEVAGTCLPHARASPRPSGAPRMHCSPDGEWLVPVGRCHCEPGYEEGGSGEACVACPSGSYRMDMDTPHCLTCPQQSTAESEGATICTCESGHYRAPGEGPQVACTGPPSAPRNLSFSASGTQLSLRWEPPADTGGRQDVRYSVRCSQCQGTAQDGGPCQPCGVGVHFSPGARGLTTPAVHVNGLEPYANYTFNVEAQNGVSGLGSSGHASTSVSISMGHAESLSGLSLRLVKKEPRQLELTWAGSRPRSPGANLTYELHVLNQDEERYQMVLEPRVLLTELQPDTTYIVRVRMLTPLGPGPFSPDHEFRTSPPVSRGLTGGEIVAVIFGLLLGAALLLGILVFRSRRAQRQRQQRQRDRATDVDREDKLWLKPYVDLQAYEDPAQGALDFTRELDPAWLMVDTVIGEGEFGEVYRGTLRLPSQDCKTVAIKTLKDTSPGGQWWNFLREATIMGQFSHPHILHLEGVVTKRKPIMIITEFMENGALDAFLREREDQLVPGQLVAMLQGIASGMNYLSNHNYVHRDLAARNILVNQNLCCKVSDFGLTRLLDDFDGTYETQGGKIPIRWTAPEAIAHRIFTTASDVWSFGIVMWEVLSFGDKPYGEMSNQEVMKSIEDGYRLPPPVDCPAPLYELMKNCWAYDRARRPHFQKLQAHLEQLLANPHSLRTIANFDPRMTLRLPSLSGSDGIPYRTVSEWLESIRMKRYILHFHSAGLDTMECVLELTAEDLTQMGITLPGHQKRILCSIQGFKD

CHEK2 = CHEK2 (Homo sapiens (Human), UniProt O96017); experiment: KINOMEscan; type: binding; details: 1 uM
Sequence of CHEK2 (O96017 whole entry): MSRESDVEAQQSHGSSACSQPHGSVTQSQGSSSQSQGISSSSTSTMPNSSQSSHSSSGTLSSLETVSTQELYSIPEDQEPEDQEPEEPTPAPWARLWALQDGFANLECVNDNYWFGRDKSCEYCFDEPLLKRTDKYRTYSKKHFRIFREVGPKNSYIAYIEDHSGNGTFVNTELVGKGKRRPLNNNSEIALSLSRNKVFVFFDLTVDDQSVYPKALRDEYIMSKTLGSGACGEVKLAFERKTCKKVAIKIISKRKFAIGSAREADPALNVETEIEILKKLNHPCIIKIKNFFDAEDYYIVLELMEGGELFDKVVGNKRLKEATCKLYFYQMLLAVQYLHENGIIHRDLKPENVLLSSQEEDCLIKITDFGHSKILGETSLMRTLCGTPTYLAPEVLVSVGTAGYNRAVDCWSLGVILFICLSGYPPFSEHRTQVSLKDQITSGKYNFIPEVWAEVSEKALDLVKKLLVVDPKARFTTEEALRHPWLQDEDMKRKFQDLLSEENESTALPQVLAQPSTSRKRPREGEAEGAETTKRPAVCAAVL

LIMK2 = LIMK2 (Homo sapiens (Human), UniProt P53671); experiment: KINOMEscan; type: binding; details: 1 uM
[1] = biological target: ABL1 (F317I)-phosphorylated (Homo sapiens (Human), UniProt P00519, F317I); experiment: KINOMEscan; type: binding; details: 1 uM
GRK1 = GRK1 (Homo sapiens (Human), UniProt Q15835); experiment: KINOMEscan; type: binding; details: 1 uM
SIK1 = SIK1 (Homo sapiens (Human), UniProt P57059); experiment: Percent activity against SIK1 at 1 μM; type: biochemical
Sequence of SIK1 (P57059 whole entry): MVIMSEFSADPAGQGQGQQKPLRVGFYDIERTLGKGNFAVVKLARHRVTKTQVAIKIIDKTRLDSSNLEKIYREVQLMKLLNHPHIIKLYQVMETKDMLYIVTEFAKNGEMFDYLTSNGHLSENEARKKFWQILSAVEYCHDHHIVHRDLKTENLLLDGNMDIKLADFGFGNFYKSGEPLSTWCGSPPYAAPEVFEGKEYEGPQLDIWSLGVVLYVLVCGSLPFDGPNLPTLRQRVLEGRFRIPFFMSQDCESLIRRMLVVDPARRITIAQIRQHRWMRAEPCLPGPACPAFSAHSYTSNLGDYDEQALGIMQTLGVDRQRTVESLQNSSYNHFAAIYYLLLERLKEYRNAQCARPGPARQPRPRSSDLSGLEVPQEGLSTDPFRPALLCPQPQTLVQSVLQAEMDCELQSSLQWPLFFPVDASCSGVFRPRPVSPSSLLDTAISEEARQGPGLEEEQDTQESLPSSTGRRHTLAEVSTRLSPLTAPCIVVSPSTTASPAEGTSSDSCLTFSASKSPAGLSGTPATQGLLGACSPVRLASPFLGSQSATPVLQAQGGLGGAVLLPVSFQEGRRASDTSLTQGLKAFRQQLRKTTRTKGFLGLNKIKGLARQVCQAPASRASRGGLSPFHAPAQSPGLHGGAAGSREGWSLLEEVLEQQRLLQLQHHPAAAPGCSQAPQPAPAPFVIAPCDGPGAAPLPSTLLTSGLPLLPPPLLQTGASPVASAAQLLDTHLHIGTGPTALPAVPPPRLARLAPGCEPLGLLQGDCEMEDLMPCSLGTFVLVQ

GRK7 = GRK7 (Homo sapiens (Human), UniProt Q8WTQ7); experiment: KINOMEscan; type: binding; details: 1 uM
NEK6 = NEK6 (Homo sapiens (Human), UniProt Q9HC98); experiment: KINOMEscan; type: binding; details: 1 uM
p38-alpha = p38-alpha (Homo sapiens (Human), UniProt Q16539); experiment: KINOMEscan; type: binding; details: 1 uM
MET = MET (Homo sapiens (Human), UniProt P08581); experiment: KINOMEscan; type: binding; details: 1 uM
Sequence of MET (P08581 25-1390): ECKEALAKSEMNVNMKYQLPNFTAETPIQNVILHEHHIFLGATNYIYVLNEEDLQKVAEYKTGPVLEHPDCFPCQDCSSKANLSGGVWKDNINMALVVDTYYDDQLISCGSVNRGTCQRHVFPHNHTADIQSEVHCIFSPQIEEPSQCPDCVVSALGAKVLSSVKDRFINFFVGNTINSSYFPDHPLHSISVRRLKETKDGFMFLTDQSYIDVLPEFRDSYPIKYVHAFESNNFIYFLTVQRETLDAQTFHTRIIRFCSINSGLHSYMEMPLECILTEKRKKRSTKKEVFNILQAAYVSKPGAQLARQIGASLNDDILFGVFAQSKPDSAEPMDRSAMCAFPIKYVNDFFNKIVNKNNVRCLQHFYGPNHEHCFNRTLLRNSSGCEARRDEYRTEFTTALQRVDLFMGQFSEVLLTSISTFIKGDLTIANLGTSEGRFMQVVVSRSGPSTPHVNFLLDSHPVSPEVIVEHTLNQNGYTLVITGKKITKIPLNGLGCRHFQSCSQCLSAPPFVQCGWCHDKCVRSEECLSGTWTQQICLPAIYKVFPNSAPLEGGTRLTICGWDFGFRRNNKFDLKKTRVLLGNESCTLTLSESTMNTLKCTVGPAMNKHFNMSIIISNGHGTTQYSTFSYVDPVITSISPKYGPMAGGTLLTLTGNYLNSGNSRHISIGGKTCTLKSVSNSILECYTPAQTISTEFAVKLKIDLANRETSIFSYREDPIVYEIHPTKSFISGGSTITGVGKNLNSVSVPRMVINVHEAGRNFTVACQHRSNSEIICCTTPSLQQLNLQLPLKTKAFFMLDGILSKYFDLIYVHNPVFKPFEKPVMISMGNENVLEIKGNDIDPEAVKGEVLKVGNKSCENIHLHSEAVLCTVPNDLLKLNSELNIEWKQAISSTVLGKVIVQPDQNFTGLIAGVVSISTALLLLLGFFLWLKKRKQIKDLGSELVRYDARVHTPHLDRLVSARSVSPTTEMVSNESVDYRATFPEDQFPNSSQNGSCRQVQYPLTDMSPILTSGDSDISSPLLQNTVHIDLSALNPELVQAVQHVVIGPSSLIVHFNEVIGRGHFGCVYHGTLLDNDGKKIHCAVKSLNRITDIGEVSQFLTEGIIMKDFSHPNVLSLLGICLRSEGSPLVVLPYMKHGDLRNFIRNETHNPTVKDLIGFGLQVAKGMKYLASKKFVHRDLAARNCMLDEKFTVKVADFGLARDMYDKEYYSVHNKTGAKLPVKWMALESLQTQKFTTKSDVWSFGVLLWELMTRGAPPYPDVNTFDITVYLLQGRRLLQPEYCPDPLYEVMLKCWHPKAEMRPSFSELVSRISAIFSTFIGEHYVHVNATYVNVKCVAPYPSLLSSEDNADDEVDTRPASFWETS

FLT3 = FLT3 (Homo sapiens (Human), UniProt P36888); experiment: KINOMEscan; type: binding; details: 1 uM
BMPR1A = BMPR1A (Homo sapiens (Human), UniProt P36894); experiment: KINOMEscan; type: binding; details: 1 uM
SGK = SGK (Homo sapiens (Human), UniProt O00141); experiment: KINOMEscan; type: binding; details: 1 uM
MAP3K15 = MAP3K15 (Homo sapiens (Human), UniProt Q6ZN16); experiment: KINOMEscan; type: binding; details: 1 uM
MEK4 = MEK4 (Homo sapiens (Human), UniProt P45985); experiment: KINOMEscan; type: binding; details: 1 uM
Sequence of MEK4 (P45985 whole entry): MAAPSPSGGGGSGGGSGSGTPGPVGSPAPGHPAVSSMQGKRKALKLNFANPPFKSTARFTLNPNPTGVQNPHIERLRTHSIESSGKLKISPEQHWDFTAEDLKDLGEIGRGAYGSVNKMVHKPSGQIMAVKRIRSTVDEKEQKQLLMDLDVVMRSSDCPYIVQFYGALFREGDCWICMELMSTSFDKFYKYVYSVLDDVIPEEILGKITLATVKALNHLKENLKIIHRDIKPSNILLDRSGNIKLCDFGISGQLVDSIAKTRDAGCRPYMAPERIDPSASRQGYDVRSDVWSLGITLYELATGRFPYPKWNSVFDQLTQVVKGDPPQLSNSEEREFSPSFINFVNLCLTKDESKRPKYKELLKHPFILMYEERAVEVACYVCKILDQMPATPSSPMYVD

ACVR2A = ACVR2A (Homo sapiens (Human), UniProt P27037); experiment: KINOMEscan; type: binding; details: 1 uM
PLK2 = PLK2 (Homo sapiens (Human), UniProt Q9NYY3); experiment: KINOMEscan; type: binding; details: 1 uM
CSNK1E = CSNK1E (Homo sapiens (Human), UniProt P49674); experiment: KINOMEscan; type: binding; details: 1 uM
LTK = LTK (Homo sapiens (Human), UniProt P29376); experiment: KINOMEscan; type: binding; details: 1 uM
Sequence of LTK (P29376 17-864): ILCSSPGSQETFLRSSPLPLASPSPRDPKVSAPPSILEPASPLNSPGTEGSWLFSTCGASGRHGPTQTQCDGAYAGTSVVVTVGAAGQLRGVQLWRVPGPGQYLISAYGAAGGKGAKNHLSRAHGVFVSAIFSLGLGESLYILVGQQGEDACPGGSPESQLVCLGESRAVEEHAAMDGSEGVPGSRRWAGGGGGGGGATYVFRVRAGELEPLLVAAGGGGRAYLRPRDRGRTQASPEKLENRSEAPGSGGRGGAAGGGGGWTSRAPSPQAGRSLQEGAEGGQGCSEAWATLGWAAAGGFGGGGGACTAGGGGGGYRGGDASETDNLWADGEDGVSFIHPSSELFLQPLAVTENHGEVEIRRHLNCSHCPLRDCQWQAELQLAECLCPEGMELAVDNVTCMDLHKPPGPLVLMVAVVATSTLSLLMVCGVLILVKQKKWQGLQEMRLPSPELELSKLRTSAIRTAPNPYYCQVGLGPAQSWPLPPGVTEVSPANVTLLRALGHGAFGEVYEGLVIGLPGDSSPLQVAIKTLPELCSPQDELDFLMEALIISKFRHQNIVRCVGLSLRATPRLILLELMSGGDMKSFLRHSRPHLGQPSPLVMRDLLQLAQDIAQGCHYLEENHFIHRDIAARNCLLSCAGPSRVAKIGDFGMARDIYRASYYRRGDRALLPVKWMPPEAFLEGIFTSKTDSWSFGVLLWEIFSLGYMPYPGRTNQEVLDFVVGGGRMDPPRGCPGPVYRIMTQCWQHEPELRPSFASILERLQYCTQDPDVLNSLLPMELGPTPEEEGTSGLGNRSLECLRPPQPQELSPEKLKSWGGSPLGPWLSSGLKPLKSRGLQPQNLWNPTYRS

LCK = LCK (Homo sapiens (Human), UniProt P06239); experiment: KINOMEscan; type: binding; details: 1 uM
NEK7 = NEK7 (Homo sapiens (Human), UniProt Q8TDX7); experiment: KINOMEscan; type: binding; details: 1 uM
CSNK1D = CSNK1D (Homo sapiens (Human), UniProt P48730); experiment: KINOMEscan; type: binding; details: 1 uM
PFPK5 (P. falciparum) = PFPK5 (P. falciparum) (Plasmodium falciparum (isolate 3D7), UniProt P61075); experiment: KINOMEscan; type: binding; details: 1 uM

COc1ccc(N2C(=O)N(c3c(C)cccc3C)Cc3cnc(Nc4ccc(N5CCN(C)CC5)cc4)nc32)c(OC)c1 [HG-11-136-01]
KINOMEscan CAMK2D (CAMK2D): 100 | KINOMEscan CLK1 (CLK1): 19 | KINOMEscan EPHB3 (EPHB3): 0 | KINOMEscan PIK3CA (E542K) (PIK3CA (E542K)): 88 | KINOMEscan PRKR (PRKR): 73 | KINOMEscan ACVR1B (ACVR1B): 9.6 | KINOMEscan ZAK (ZAK): 1.2 | KINOMEscan IKK-alpha (IKK-alpha): 99 | KINOMEscan PIK3CA (C420R) (PIK3CA (C420R)): 69 | KINOMEscan TYRO3 (TYRO3): 1.6 | KINOMEscan MELK (MELK): 36 | KINOMEscan MKNK1 (MKNK1): 85 | KINOMEscan MEK5 (MEK5): 0.1 | KINOMEscan MTOR (MTOR): 83 | KINOMEscan TXK (TXK): 0.25 | KINOMEscan LOK (LOK): 0 | KINOMEscan TRKC (TRKC): 71 | KINOMEscan PKAC-beta (PKAC-beta): 66 | KINOMEscan EPHA1 (EPHA1): 0 | KINOMEscan CHEK2 (CHEK2): 46 | KINOMEscan LIMK2 (LIMK2): 0 | KINOMEscan ABL1 (F317I)-phosphorylated [1]: 1.3 | KINOMEscan GRK1 (GRK1): 77 | Enzyme activity at 1 μM (%) SIK1 (SIK1; 1 μM): 19.1% | SIK1 % ACTIVITY (SIK1; compound at 1 μM, approximate Km for ATP): 19.1% | KINOMEscan GRK7 (GRK7): 96 | KINOMEscan NEK6 (NEK6): 100 | KINOMEscan p38-alpha (p38-alpha): 1 | KINOMEscan MET (MET): 66 | KINOMEscan FLT3 (FLT3): 34 | KINOMEscan BMPR1A (BMPR1A): 4.6 | KINOMEscan SGK (SGK): 63 | KINOMEscan MAP3K15 (MAP3K15): 40 | KINOMEscan MEK4 (MEK4): 48 | KINOMEscan ACVR2A (ACVR2A): 5 | KINOMEscan PLK2 (PLK2): 21 | KINOMEscan CSNK1E (CSNK1E): 59 | KINOMEscan LTK (LTK): 18 | KINOMEscan LCK (LCK): 0.05 | KINOMEscan NEK7 (NEK7): 100 | KINOMEscan CSNK1D (CSNK1D): 100 | KINOMEscan PFPK5 (P. falciparum) (PFPK5 (P. falciparum)): 96
